Converted amounts (≈) assume the structure as drawn.
Key:
Type in all cases: physicochemical
[1] = Solubility of decitabine in different non-aqueous media; details: DMSO
Method: Due to the unsuitability of aqueous media, different non-aqueous media were tested with regard to the solubility of decitabine in the non-aqueous media. As decitabine is a nucleoside, several polar, water-free solvents, that would be well suited for further formulation experiments, were selected to determine the solubility of decitabine. […] Therefore, the DMSO stock was chosen as the next candidate for stability and formulation testing.

[2] = Stability of decitabine in aqueous media (HPLC); details: DMSO stock mixed 1:2 with 20 mM ammonium acetate pH 6.8; room temperature (about 25° C.); up to 14 days
Method: (§1) Chem Res Toxicol 2009; 22 (6): 1194-204.
(§2) • 1. […] Immediate Injection • 3. […] Chem Res Toxicol 2009; 22 (6): 1194-204.
To test the stability of β-decitabine in an aqueous medium, two stock solutions of β-decitabine in DMSO were prepared and mixed 1:2 with the HPLC mobile phase (20 mM ammonium acetate pH 6.8). The samples were stored at room temperature (about 25° C.) and their content of β-decitabine, which is considered to represent the active anomer of decitabine, was measured for up to 14 days.

[3] = Long-term stability of decitabine in DMSO (HPLC); details: 3 mM stock in DMSO; room temperature and 2-8° C.; almost three months
Method: as §1, §2
A 3 mM stock solution of decitabine in DMSO was prepared and one aliquot each was stored at room temperature and at 2-8° C. Its β-decitabine concentration was determined by HPLC for almost three months.

solubility ([1]; organic solvent or mixture): ~46 mg/mL (≈ 202 mM)
solubility of decitabine for relevant dosage strengths ([1]; four tested solvents: glycerol, PEG 300, absolute ethanol): only DMSO showed sufficient solubility
stability of β-decitabine in aqueous medium [2]: observed instability
change in β-decitabine concentration in DMSO [3]: almost no change
SMILES: Nc1ncn([C@H]2C[C@H](O)[C@@H](CO)O2)c(=O)n1 [decitabine, 5-aza-2′-deoxycytidine]
